The record followed here is ChEMBL document CHEMBL5247674, “Discovery of Selective and Potent KRASG12D Inhibitors as Potential Therapy in Cancer” (ACS Med Chem Lett, 2023).

For one experiment, the species on record is Homo sapiens. Briefly: Selectivity ratio of IC50 for inhibition of KRAS G12D mutant (unknown origin) to CRAF (unknown origin) protein protein interaction to IC50 for KRAS (unknown origin) to CRAF (unknown origin) protein protein interaction. The settings on record: tested as the 2H-labelled form.
A further experiment has as its target GTPase KRas (Homo sapiens, UniProt P01116, G12D). Briefly: Inhibition of human KRAS G12D mutant in human AGS cells assessed as reduction in phosphorylated ERK level incubated for 3 hrs. Type of experiment: cell-based.
The nature of experiment [1]: Inhibition of KRAS G12D mutant (unknown origin) to CRAF (unknown origin) protein protein interaction. Details: species or system Homo sapiens.
The target in the next experiment is GTPase KRas/RAF1 (Homo sapiens, UniProt P01116). The experiment in a line: Inhibition of KRAS (unknown origin) to CRAF (unknown origin) protein protein interaction. Type of experiment: protein assay.

Where only a bound is given, the exact number is not on record here.

Sequence of GTPase KRas/RAF1 (P04049 whole entry): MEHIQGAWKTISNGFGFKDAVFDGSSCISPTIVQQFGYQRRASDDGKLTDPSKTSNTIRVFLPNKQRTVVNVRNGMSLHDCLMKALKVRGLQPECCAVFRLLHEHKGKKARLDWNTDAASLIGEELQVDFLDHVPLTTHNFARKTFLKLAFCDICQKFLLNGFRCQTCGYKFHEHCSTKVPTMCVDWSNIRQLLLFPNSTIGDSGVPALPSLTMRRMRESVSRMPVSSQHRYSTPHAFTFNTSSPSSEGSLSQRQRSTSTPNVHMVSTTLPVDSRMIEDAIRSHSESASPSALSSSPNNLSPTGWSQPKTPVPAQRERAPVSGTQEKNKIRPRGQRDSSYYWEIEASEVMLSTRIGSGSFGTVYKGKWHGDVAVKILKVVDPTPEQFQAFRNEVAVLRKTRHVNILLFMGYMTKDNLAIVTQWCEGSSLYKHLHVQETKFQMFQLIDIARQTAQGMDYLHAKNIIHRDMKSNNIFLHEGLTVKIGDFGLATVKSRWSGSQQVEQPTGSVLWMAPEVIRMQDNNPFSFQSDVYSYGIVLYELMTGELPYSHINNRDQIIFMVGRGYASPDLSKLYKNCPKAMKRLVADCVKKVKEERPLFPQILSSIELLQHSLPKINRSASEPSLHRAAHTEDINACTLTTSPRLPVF
Sequence of GTPase KRas/RAF1 (P01116 whole entry): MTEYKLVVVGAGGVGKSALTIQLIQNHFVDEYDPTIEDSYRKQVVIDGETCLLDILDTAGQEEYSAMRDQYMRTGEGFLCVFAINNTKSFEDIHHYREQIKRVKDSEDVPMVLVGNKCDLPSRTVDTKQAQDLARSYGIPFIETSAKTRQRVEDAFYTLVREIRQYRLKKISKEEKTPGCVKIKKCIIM
Sequence of GTPase KRas (P01116 whole entry G12D): as the sequence (P01116 whole entry) above, with G12D counted along it

A word on the IC50: it is the concentration that gives 50% inhibition. Turning to `Oc1cc(Cl)c(C2CC2)c(-c2ncc3c(N4CC5CCC4CN5)nc(OC[C@@]45CCCN4C[C@H](F)C5)nc3c2F)c1` (some centres undefined), the Ratio IC50 in the experiment filed under Homo sapiens was more than 72. On GTPase KRas, the IC50 was not above 50 nM. Turning to `[2H]C1([2H])CC[C@@]2(COc3nc(N4CC5CCC4CN5)c4cnc(-c5cc(O)cc6ccc(F)c(C#C)c56)c(F)c4n3)C[C@@]([2H])(F)CN12` (some centres undefined), the results for the IC50 (in experiment [1]; at GTPase KRas/RAF1; on GTPase KRas) were 5.07 nM, 59.6 nM and not above 50 nM, respectively. As to `[2H]C1([2H])CC[C@@]2(COc3nc(N4CC5CCC4CN5)c4cnc(-c5cc(O)cc(Cl)c5C5CC5)c(F)c4n3)C[C@@]([2H])(F)CN12` (some centres undefined), the IC50 in experiment [1] was 13.9 nM; on GTPase KRas/RAF1, more than 1000 nM; at GTPase KRas, not above 50 nM. In the case of `[2H]C1([2H])CC[C@@]2(COc3nc(N4CC5CCC4CN5)c4cnc(-c5cc(O)cc(F)c5C5CC5)c(F)c4n3)C[C@@]([2H])(F)CN12` (some centres undefined), the IC50 on GTPase KRas was more than 50 nM. As for `[2H]C1([2H])CC[C@@]2(COc3nc(N4CC5CCC4CN5)c4cnc(-c5cc(O)cc6ccc(F)c(F)c56)c(F)c4n3)C[C@@]([2H])(F)CN12` (some centres undefined), the IC50 on GTPase KRas is not above 50 nM. With `C#Cc1c(F)ccc2cc(O)cc(-c3ncc4c(N5CC6CCC5CN6)nc(OC[C@@]56CCCN5C[C@H](F)C6)nc4c3F)c12` (some centres undefined), the Ratio IC50 in the experiment listed under Homo sapiens came to 12.

In the case of `Oc1cc(Cl)c(C2CC2)c(-c2ncc3c(N4CC5CCC4CN5)nc(OC[C@]45CCCN4C[C@@H](F)C5)nc3c2F)c1` (some centres undefined), the IC50 at GTPase KRas is more than 50 nM. Take `C#Cc1c(F)ccc2cc(O)cc(-c3ncc4c(N5CC6CCC5CN6)nc(OCC56CCCN5CCC6)nc4c3F)c12` (centres undefined): in the experiment filed under Homo sapiens, the Ratio IC50 stood at 12. Take `[2H]C1([2H])CC[C@]2(COc3nc(N4CC5CCC4CN5)c4cnc(-c5cc(O)cc(Cl)c5C5CC5)c(F)c4n3)C[C@]([2H])(F)CN12` (some centres undefined): the IC50 on GTPase KRas is more than 50 nM.

For the molecule `Oc1cc(Cl)c(C(F)(F)F)c(-c2ncc3c(N4CC5CCC4CN5)nc(OCC45CCCN4CCC5)nc3c2F)c1` (centres undefined), on GTPase KRas, the IC50 was more than 1 nM. On the same count and under the same terms, to `Oc1ccc(C(F)(F)F)c(-c2ncc3c(N4CC5CCC4CN5)nc(OCC45CCCN4CCC5)nc3c2F)c1` (centres undefined) belongs more than 1 nM. As for `[2H][C@H]1CN2CCC[C@@]2(COc2nc(N3CC4CCC3CN4)c3cnc(-c4cc(O)cc5ccc(F)c(C#C)c45)c(F)c3n2)C1` (some centres undefined), the IC50 in experiment [1] is 3.95 nM; against GTPase KRas/RAF1 it was 48.9 nM; on GTPase KRas, not above 50 nM.
